Measured values taken from US20070219162A1, “Partially-fluorinated ethers, compositions and uses thereof, for long-term tamponade in the eye” (THE TRUSTEES OF COLUMBIA UNIVERSITY IN THE CITY OF NEW YORK, priority 2004, published 2007).

Experiments:
[1] = Viscosity of tamponading agents; type: physicochemical
[2] = Boiling point of tamponading agents; conditions: Table 1
[3] = Specific gravity of tamponading agents; type: physicochemical
From the text: Soluble Mixtures of Partially Fluorinated Ethers. The presence of the hydrocarbon chain in the structure of formula (I) has a large effect on the solubility properties of the molecule. The partially fluorinated ethers of formula (I) are completely miscible with certain perfluorocarbons, such as perfluoro-n-octane (“PFnO”) (C8F18), perfluoroethylcyclohexane (C8F16), perfluorodecalin (C10F18), and perfluorophenanthrene (C14F24). The solubility of formula (I) liquids with perfluorocarbons enables the design of soluble mixtures that can be used as long-term postoperative tamponade agents that have a specific gravity less than 1.6 or 1.5 such that the probability of retinal damage due to weight is reduced. For example, the commonly used intraoperative perfluorocarbon, PFnO, has a specific gravity of about 1.7. Thus, in order to make a soluble mixture of PFnO and DFPE (which has a specific gravity of about 1.3) that has a specific gravity less than 1.6 or 1.5, then one can use a greater amount of DFPE to reduce the specific gravity of the soluble mixture. For example, a mixture comprising about 25% PFnO and about 75% DFPE has a specific gravity of 1.39 at body temperature (see Table 1). This general strategy of mixing lighter partially fluorinated ether liquids with perfluorocarbon liquids can be conducted with any of the formula (I) liquids and a perfluorocarbon liquid, as long as they are miscible. Further, one can also make soluble mixtures between different partially fluorinated ethers in order to obtain a liquid tamponade agent that has a preferred specific gravity.
Further, one can use the strategy of mixing partially fluorinated ether liquids of formula (I) with lighter tamponade liquids, such as silicone, in order to resolve buoyancy problems and to increase tamponade force. As described previously, because silicone liquids are lighter than water and are immiscible in water, silicone liquids form a globule that rises above aqueous solutions. To rectify this problem, partially fluorinated ether liquids can be mixed with silicone liquids and oils such that soluble mixture has a specific gravity greater than 1.0. In one embodiment, partially fluorinated ether and silicone solutions have a specific gravity between about 1.00 and about 1.06. For example, DFPE can be mixed with silicone oil (such as dimethyl siloxane) and be soluble in silicone oil up to about 20% DFPE (weight to weight (w/w)). Thus, the invention contemplates DFPE and silicone mixtures where DFPE comprises between about 10% and about 20% of the solution and where silicone comprises between about 90% and about 80% of the solution. In one embodiment, a soluble mixture comprises between about 15% and about 18% (w/w) DFPE and between about 85% and about 82% (w/w) silicone oil. In another embodiment, a soluble mixture of about 18% (w/w) DFPE and about 82% (w/w) silicone oil has a specific gravity of about 1.02 at 37° C. In another embodiment, a soluble mixture of about 20% (w/w) DFPE and about 80% (w/w) silicone oil has a specific gravity of about 1.02-1.03. Perfluorocarbon liquids cannot be easily mixed with silicone liquids because perfluorocarbon liquids, not having any hydrocarbons, are only soluble up to less than about 1000 ppm with silicone.

[4] = Tamponade force calculated from specific gravity difference to fluid vitreous; type: physicochemical; parameters: unit not given beside the values; conditions: difference in specific gravity to fluid vitreous (1.03) multiplied by volume of tamponade agent (5 mL)
[5] = Refractive index of tamponading agents; type: physicochemical; conditions: Table 1
[6] = tested on: eye; conditions: in vivo
From the text: FIG. 4 and FIG. 5 show results indicating the long term biocompatibility of the eye to decafluoro-di-n-pentyl ether. […] Thus, the above characteristics, combined with the specific-gravity characteristics of the partially fluorinated ethers of formula (I), allow for their long-term use in the eye without damage, and with improved efficacy, convenience and biocompatibility. […] The invention contemplates the use of liquid tamponade agents comprising partially fluorinated ethers according to formula (I) for postoperative periods such as: hours, days, weeks, 1 month, 2 months, 3 months, greater than 3 months, greater than 6 months, up to 1 year, up to 2 years or more. Period greater than 1 year are not generally required for tamponade.

[7] = type: physicochemical
Description: (§1) DFPE liquid is stable. […] Further, a mixture of DFPE in silicone (20% DFPE (w/w) and 80% silicone (w/w)) is stable through daily temperature cycling (20-40° C.) through at least 18 months. Further with respect to water insolubility, a single drop of DFPE (about 50 ppm) added to one liter of water remains visible, unchanged and undissolved for long periods of time (at least greater than 8 months).

[8] = tested on: eye; test: Gas chromatography of DFPE recovered from the eye; type: in vivo; conditions: after one month of residence time in the eye
[9] = Water insolubility (single drop in one liter of water); type: physicochemical; conditions: single drop (about 50 ppm) added to one liter of water
Description: as §1

[10] = type: physicochemical; remark: listed apart in the source
From the text: Soluble Mixtures of Partially Fluorinated Ethers. The presence of the hydrocarbon chain in the structure of formula (I) has a large effect on the solubility properties of the molecule. The partially fluorinated ethers of formula (I) are completely miscible with certain perfluorocarbons, such as perfluoro-n-octane (“PFnO”) (C8F18), perfluoroethylcyclohexane (C8F16), perfluorodecalin (C10F18), and perfluorophenanthrene (C14F24). The solubility of formula (I) liquids with perfluorocarbons enables the design of soluble mixtures that can be used as long-term postoperative tamponade agents that have a specific gravity less than 1.6 or 1.5 such that the probability of retinal damage due to weight is reduced. For example, the commonly used intraoperative perfluorocarbon, PFnO, has a specific gravity of about 1.7. Thus, in order to make a soluble mixture of PFnO and DFPE (which has a specific gravity of about 1.3) that has a specific gravity less than 1.6 or 1.5, then one can use a greater amount of DFPE to reduce the specific gravity of the soluble mixture. For example, a mixture comprising about 25% PFnO and about 75% DFPE has a specific gravity of 1.39 at body temperature (see Table 1). […]

[11] = approximate, no temperature stated

SMILES	Viscosity (centistrokes at 25° C.) [1] [centistrokes]	Boiling Point [2] [°C]	Specific Gravity ([3]; Table 1)	Specific Gravity [3, 11]	Tamponade Force [4]	Refractive Index [5]	amplitudes of electroretinographic responses [6]	implicit times of electroretinographic responses [6]	stability to sunlight exposure [7]	stable over time ([7]; ambient temperature)	stable when exposed to heat ([7]; heat exposure)	Specific Gravity ([3]; at body temperature)	changes in composition of DFPE recovered from the eye [8]	time a single drop remains visible, unchanged and undissolved in water [9]	solubility in silicone oil [10]
FC(F)(F)C(F)(F)C(F)(F)C(F)(F)C(F)(F)C(F)(F)C(F)(F)C(F)(F)F [PFnO, perfluoro-n-octane]	0.8	105	1.76	about 1.7	3.65	1.27									
FC(F)(F)C(F)(F)CCCOCCCC(F)(F)C(F)(F)F [DFPE, decafluoro-di-n-pentyl ether]			1.31	about 1.3	1.4		does not exhibit any negative effects	does not exhibit any negative effects	stable to sunlight exposure	at least 2 years	up to 95 °C	1.31	less than 0.05%	greater than 8 months	up to 20 % (w/w)
Fc1c(F)c(F)c2c(c1F)c(F)c(F)c1c(F)c(F)c(F)c(F)c12 [Perfluorophenanthrene, perfluorophenanthrene]	8.03	215	2.03		5.0	1.28									
FC1(F)C(F)(F)C(F)(F)C2(F)C(F)(F)C(F)(F)C(F)(F)C(F)(F)C2(F)C1(F)F (stereo not shown) [Perfluorodecalin, perfluorodecalin]	2.7	177	1.94		4.55	1.31									
